Assays:
[1] = molecular target: T1, EPHA8 (Homo sapiens, UniProt P29322); experiment: biochemical; settings: read-out: % enzyme activity, 1 μM; Run 1, Run 2
T1 sequence (P29322 28-1005): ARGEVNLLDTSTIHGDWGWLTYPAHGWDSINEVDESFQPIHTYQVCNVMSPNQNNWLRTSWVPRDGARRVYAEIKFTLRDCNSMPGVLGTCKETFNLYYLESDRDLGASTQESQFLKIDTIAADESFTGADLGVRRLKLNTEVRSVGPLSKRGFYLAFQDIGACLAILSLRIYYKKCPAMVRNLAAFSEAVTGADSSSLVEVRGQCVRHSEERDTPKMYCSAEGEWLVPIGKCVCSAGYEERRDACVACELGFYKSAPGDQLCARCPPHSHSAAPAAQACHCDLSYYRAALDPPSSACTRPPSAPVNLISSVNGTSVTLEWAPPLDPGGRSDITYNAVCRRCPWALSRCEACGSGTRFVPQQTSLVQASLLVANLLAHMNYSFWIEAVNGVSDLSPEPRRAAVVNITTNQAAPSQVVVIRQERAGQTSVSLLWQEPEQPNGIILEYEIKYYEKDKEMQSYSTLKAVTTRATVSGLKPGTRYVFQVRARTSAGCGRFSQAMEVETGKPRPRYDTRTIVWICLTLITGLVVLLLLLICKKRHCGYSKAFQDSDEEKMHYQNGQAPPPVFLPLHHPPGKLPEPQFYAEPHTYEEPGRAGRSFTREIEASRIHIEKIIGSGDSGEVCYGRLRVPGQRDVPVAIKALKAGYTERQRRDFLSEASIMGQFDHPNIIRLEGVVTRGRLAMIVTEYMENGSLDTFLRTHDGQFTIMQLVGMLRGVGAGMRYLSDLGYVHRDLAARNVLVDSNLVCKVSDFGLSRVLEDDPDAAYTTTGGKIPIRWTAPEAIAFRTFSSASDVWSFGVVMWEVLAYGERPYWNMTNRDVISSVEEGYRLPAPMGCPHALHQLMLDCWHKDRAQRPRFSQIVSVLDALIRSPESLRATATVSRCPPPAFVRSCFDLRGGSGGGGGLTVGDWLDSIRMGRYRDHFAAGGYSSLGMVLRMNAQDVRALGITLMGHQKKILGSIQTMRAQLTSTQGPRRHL

[2] = molecular target: T2, PKMYT1 (Homo sapiens, UniProt Q99640); settings: 1 μM; Run 1, Run 2
T2 sequence (Q99640 1-499): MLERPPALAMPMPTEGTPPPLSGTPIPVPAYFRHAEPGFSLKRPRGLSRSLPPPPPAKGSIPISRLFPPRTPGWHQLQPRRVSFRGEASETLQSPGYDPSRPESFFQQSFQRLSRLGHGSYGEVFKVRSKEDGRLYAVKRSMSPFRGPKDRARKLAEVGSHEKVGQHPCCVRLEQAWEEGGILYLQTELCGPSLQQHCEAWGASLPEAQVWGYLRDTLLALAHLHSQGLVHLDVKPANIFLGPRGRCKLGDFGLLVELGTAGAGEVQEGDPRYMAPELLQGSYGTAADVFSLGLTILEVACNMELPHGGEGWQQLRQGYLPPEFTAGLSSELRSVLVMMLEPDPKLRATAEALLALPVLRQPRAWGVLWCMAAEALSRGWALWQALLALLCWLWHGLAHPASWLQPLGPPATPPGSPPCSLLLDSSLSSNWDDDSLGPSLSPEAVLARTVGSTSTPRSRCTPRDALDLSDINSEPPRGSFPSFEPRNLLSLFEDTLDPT

[3] = molecular target: TRKB (Homo sapiens, UniProt Q16620); experiment: biochemical; settings: read-out: % enzyme activity, 1 μM; Run 1, Run 2
Sequence of TRKB (Q16620 32-822): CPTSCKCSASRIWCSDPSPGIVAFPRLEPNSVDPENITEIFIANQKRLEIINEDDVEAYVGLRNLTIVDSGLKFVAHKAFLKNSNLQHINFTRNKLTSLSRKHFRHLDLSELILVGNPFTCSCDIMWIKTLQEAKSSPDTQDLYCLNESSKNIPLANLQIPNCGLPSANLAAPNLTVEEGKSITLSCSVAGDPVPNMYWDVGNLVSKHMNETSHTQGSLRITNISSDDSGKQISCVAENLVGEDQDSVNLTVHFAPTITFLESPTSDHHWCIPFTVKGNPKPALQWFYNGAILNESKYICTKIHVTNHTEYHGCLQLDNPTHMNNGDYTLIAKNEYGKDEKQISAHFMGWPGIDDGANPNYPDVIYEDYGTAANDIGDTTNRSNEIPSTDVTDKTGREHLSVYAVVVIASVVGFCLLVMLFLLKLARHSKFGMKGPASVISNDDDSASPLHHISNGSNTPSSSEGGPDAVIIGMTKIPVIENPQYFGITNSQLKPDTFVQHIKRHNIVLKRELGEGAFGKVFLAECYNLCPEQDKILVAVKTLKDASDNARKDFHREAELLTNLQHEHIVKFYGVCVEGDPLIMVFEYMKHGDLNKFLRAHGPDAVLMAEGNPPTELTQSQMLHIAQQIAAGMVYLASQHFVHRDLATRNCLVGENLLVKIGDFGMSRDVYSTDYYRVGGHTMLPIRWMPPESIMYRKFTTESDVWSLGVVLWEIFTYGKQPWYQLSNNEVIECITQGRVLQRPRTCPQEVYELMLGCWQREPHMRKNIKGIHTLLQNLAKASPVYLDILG

[4] = molecular target: T3, RIPK5 (Homo sapiens, UniProt Q6XUX3); experiment: biochemical; settings: read-out: % enzyme activity, 1 μM; Run 1, Run 2
T3 sequence (Q6XUX3 1-929): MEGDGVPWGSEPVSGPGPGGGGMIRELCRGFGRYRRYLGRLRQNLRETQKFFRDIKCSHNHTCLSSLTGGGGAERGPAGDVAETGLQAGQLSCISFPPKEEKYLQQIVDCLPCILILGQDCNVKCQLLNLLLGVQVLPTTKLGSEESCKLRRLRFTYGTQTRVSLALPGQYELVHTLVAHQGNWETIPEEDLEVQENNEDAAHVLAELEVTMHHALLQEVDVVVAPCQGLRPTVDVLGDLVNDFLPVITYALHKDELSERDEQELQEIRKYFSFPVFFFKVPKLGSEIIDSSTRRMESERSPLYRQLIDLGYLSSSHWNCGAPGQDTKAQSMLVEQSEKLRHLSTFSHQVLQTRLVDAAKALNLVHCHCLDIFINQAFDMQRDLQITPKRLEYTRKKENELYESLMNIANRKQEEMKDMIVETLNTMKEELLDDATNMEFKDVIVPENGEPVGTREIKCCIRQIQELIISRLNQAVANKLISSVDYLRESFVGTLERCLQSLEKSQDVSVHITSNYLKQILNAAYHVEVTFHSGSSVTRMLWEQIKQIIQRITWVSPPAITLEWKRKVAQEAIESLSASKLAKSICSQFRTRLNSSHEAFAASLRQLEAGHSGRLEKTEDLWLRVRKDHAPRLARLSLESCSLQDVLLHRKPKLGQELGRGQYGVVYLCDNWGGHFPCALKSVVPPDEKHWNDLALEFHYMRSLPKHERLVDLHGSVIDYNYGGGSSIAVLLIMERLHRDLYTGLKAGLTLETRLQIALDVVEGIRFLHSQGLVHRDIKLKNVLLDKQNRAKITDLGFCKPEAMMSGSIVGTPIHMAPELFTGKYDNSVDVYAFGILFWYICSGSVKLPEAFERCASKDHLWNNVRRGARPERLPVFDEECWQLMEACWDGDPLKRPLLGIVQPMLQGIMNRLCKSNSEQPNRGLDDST

[5] = molecular target: CAMK1d (Homo sapiens, UniProt Q8IU85); experiment: biochemical; settings: read-out: % enzyme activity, 1 μM; Run 1, Run 2
Sequence of CAMK1d (Q8IU85 whole entry): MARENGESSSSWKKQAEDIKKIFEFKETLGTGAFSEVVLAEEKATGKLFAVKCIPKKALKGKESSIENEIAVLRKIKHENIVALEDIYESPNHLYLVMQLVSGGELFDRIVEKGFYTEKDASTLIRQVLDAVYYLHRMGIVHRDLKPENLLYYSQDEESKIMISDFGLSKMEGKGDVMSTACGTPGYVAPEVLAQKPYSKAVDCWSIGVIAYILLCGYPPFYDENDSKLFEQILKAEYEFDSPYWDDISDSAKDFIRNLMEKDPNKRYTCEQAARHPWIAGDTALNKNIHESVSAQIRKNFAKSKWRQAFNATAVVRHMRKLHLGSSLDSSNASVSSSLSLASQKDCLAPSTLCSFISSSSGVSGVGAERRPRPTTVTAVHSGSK

[6] = molecular target: CDK2/cyclin O (Homo sapiens, UniProt P24941); experiment: biochemical; settings: read-out: % enzyme activity, 1 μM; Run 1, Run 2

| Structure (SMILES) | remaining activity at 1 µM [1] [%] | % enzyme activity [2] [%] | remaining activity at 1 µM [3] [%] | remaining activity at 1 µM [4] [%] | remaining activity at 1 µM [5] [%] | remaining activity at 1 µM [6] [%] |
| --- | --- | --- | --- | --- | --- | --- |
| COc1cc(-c2cncc(-c3ccc(N4CCN(C)CC4)cc3)c2C)cc(F)c1C(N)=O [Compound 26a, 2-Fluoro-6-methoxy-4-(4-methyl-5-(4-(4-methylpiperazin-1-yl)phenyl)pyridin-3-yl)benzamide] | 95.3 | 100.09 | 100 | 83.1 | 98.5 | 95.1 |
| COc1cc(-c2cncc(-c3ccc(N4C[C@@H](C)N(C)[C@@H](C)C4)cc3)c2C)cc(F)c1C(N)=O [Compound 26c, 2-Fluoro-6-methoxy-4-(4-methyl-5-(4-((3R,5S)-3,4,5-trimethylpiperazin-1-yl)phenyl)pyridin-3-yl)benzamide] | 97.5 | 92.38 | 99 | 86.8 | 99.9 | 92.7 |

— paper PMC8213057, “Targeting ALK2: An Open Science Approach to Developing Therapeutics for the Treatment of Diffuse Intrinsic Pontine Glioma” (Journal of Medicinal Chemistry, 2020)
